Results taken from PMC12406253, “Exploration of the Neuromodulatory Properties of Fyn and GSK-3β Kinases Exploiting 7‑Azaindole-Based Inhibitors” (Journal of Medicinal Chemistry, 2025).

Columns and labels:
[1] = target: T1, TAK1(h) (Homo sapiens, UniProt O43318); assay: Eurofins KinaseProfiler radiometric kinase assay; type: biochemical; settings: read-out: TAK1(h) % Residual activity
T1 construct: purchased Eurofins (Eurofins Cerep) KinaseProfiler

[2] = target: T2, CDK2/cyclinA(h) (Homo sapiens, UniProt P24941); assay: Eurofins KinaseProfiler radiometric kinase assay; type: biochemical; settings: read-out: CDK2/cyclinA(h) % Residual activity
T2 construct: purchased Eurofins KinaseProfiler (Eurofins Cerep)

[3] = target: T3, SRPK1(h) (Homo sapiens, UniProt Q96SB4); assay: Eurofins KinaseProfiler radiometric kinase assay; type: biochemical; settings: read-out: SRPK1(h) % Residual activity
T3 construct: purchased Eurofins (Eurofins Cerep) KinaseProfiler
T3 sequence (Q96SB4 whole entry): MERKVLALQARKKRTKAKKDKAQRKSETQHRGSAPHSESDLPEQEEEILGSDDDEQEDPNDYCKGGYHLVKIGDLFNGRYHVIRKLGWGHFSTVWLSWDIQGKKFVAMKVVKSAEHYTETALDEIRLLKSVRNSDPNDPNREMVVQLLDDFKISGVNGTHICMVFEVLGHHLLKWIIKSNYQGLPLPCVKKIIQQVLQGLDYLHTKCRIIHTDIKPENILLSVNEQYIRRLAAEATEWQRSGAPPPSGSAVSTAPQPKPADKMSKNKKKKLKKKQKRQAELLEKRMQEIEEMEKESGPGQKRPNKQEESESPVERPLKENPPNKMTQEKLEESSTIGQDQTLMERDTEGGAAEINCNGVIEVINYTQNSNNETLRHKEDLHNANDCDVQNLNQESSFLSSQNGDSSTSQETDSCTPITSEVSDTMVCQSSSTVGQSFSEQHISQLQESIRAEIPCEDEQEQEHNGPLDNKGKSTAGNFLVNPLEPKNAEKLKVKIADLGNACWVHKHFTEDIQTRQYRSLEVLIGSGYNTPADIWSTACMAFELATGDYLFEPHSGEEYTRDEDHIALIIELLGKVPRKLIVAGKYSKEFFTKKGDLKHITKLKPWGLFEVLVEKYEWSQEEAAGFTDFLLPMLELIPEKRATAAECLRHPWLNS

[4] = target: T4, PI3 Kinase (p120γ)(h) (Homo sapiens, UniProt P48736); assay: Eurofins KinaseProfiler radiometric kinase assay; type: biochemical; settings: read-out: PI3 Kinase (p120γ)(h) % Residual activity
T4 construct: purchased Eurofins (Eurofins Cerep) KinaseProfiler

[5] = target: T5, Rsk1(h) (Homo sapiens, UniProt Q15418); assay: Eurofins KinaseProfiler radiometric kinase assay; type: biochemical; settings: for remaining activity at 10 µM: read-out: Rsk1(h) % Residual activity
T5 construct: purchased Eurofins (Eurofins Cerep) KinaseProfiler
T5 sequence (Q15418 whole entry): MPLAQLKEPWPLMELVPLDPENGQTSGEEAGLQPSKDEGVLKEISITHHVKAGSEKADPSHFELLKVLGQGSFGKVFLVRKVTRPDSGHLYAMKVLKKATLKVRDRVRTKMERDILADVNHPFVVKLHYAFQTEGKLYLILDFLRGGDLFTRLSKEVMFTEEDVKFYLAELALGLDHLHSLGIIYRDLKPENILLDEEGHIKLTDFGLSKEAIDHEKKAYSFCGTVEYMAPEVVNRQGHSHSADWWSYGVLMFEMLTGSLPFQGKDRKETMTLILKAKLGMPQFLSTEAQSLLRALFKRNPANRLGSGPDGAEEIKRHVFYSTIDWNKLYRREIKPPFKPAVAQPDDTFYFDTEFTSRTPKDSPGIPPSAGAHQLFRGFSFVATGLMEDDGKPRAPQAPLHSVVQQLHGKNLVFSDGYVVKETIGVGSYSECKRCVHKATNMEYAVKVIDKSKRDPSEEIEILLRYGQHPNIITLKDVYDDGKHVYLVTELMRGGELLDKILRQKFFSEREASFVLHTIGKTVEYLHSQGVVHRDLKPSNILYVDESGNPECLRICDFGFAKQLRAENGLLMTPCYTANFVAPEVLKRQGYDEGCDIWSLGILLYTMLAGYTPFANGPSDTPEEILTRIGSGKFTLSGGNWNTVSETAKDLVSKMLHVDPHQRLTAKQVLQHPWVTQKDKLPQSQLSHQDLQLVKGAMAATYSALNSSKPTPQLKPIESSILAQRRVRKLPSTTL

[6] = target: T6, Pim-1(h) (Homo sapiens, UniProt P11309); assay: Eurofins KinaseProfiler radiometric kinase assay; type: biochemical; settings: read-out: Pim-1(h) % Residual activity
T6 construct: purchased Eurofins KinaseProfiler (Eurofins Cerep)
T6 sequence (P11309 whole entry): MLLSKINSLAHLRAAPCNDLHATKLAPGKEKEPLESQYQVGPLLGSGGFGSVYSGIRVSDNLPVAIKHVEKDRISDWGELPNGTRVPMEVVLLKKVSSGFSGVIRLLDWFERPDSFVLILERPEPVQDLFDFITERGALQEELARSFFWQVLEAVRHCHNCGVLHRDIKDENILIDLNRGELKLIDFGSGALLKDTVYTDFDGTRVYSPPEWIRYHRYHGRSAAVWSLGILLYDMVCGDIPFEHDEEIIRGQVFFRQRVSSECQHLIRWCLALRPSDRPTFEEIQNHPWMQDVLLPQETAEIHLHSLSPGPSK

[7] = target: T7, Mnk2(h) (Homo sapiens, UniProt Q9HBH9); assay: Eurofins KinaseProfiler radiometric kinase assay; type: biochemical; settings: read-out: Mnk2(h) % Residual activity
T7 construct: purchased Eurofins KinaseProfiler (Eurofins Cerep)

[8] = target: T8, MEK1(h) (Homo sapiens, UniProt Q02750); assay: Eurofins KinaseProfiler radiometric kinase assay; type: biochemical; settings: read-out: MEK1(h) % Residual activity
T8 construct: purchased Eurofins KinaseProfiler (Eurofins Cerep)
T8 sequence (Q02750 whole entry): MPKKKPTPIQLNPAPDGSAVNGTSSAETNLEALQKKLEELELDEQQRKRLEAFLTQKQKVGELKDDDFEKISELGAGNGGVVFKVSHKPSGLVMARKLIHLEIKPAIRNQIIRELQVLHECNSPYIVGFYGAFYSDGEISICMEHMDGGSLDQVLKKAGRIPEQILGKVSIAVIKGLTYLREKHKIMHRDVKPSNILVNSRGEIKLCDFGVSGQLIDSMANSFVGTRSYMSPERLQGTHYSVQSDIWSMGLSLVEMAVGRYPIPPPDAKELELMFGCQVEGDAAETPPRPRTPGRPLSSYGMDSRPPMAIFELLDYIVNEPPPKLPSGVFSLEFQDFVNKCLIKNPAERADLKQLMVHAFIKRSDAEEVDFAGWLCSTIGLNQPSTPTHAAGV

[9] = target: T9, DRAK1(h) (Homo sapiens, UniProt Q9UEE5); assay: Eurofins KinaseProfiler radiometric kinase assay; type: biochemical; settings: for remaining activity at 10 µM: read-out: DRAK1(h) % Residual activity
T9 construct: purchased Eurofins KinaseProfiler (Eurofins Cerep)
T9 sequence (Q9UEE5 1-414): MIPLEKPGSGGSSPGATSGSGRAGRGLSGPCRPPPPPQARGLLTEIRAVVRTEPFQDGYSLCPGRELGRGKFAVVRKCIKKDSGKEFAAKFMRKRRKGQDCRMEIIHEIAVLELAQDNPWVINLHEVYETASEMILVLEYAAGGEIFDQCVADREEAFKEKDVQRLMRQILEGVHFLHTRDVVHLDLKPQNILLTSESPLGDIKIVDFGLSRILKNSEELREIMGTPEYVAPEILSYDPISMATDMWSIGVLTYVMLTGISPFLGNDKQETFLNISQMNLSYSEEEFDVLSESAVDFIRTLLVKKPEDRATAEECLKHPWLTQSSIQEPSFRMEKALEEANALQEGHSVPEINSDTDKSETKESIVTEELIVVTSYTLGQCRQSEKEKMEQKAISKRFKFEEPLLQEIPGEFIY

[10] = target: T10, IRAK4(h) (Homo sapiens, UniProt Q9NWZ3); assay: Eurofins KinaseProfiler radiometric kinase assay; type: biochemical; settings: read-out: IRAK4(h) % Residual activity
T10 construct: purchased Eurofins KinaseProfiler (Eurofins Cerep)

[11] = target: T11, NEK2(h) (Homo sapiens, UniProt P51955); assay: Eurofins KinaseProfiler radiometric kinase assay; type: biochemical; settings: read-out: NEK2(h) % Residual activity
T11 construct: purchased Eurofins KinaseProfiler (Eurofins Cerep)
T11 sequence (P51955 whole entry): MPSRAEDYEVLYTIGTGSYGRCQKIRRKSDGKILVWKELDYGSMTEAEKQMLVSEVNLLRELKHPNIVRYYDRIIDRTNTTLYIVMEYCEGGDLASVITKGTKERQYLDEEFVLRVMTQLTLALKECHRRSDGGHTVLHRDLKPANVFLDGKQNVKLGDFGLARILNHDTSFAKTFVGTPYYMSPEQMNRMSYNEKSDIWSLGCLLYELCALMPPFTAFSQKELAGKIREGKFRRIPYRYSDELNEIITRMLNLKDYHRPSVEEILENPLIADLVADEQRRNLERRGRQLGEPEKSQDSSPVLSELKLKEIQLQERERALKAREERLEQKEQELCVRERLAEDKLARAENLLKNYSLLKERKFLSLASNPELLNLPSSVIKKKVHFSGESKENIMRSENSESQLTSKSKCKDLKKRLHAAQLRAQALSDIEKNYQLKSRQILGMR

[12] = target: T12, PDGFRβ(h) (Homo sapiens, UniProt P09619); assay: Eurofins KinaseProfiler radiometric kinase assay; type: biochemical; settings: read-out: PDGFRβ(h) % Residual activity
T12 construct: purchased Eurofins KinaseProfiler (Eurofins Cerep)
T12 sequence (P09619 33-1106): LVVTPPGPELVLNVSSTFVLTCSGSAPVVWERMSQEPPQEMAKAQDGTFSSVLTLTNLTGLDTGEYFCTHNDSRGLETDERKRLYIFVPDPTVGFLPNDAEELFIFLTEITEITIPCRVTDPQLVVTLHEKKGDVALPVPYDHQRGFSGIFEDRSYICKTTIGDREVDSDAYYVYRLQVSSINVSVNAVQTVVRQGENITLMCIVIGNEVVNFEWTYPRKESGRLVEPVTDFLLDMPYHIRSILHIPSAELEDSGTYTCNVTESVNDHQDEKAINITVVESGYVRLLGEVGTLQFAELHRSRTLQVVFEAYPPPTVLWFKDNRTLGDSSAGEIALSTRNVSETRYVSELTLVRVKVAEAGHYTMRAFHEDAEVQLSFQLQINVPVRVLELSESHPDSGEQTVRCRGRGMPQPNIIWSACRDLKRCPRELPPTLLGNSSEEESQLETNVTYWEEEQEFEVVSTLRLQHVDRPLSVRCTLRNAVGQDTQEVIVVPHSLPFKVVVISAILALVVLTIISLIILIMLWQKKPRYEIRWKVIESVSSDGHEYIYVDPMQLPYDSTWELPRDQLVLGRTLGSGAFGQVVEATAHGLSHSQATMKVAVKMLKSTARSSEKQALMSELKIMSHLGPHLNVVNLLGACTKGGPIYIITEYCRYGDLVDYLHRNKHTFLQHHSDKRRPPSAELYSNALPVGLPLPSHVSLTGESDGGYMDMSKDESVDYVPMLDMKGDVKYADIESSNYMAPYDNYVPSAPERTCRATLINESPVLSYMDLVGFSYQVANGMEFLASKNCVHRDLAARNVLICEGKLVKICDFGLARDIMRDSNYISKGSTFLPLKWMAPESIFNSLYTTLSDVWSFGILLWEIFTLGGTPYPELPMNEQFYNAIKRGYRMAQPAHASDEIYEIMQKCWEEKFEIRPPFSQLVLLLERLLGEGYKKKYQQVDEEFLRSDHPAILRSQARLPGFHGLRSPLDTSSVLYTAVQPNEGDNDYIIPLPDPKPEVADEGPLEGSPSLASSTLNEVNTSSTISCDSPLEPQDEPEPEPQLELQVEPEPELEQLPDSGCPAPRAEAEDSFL

[13] = target: T13, Rse(h) (Homo sapiens, UniProt Q06418); assay: Eurofins KinaseProfiler radiometric kinase assay; type: biochemical; settings: read-out: Rse(h) % Residual activity
T13 construct: purchased Eurofins (Eurofins Cerep) KinaseProfiler

[14] = target: FYNα (Homo sapiens, UniProt P06241); assay: FYNα kinase assay, LANCE Ultra TR-FRET; type: biochemical; settings: mean ± SD of at least three independent determinations; ATP near Km; read-out: Fyn IC50
[15] = target: T14, PKG1α(h) (Homo sapiens, UniProt Q13976); assay: Eurofins KinaseProfiler radiometric kinase assay; type: biochemical; settings: read-out: PKG1α(h) % Residual activity
T14 construct: purchased Eurofins KinaseProfiler (Eurofins Cerep)
T14 sequence (Q13976 whole entry): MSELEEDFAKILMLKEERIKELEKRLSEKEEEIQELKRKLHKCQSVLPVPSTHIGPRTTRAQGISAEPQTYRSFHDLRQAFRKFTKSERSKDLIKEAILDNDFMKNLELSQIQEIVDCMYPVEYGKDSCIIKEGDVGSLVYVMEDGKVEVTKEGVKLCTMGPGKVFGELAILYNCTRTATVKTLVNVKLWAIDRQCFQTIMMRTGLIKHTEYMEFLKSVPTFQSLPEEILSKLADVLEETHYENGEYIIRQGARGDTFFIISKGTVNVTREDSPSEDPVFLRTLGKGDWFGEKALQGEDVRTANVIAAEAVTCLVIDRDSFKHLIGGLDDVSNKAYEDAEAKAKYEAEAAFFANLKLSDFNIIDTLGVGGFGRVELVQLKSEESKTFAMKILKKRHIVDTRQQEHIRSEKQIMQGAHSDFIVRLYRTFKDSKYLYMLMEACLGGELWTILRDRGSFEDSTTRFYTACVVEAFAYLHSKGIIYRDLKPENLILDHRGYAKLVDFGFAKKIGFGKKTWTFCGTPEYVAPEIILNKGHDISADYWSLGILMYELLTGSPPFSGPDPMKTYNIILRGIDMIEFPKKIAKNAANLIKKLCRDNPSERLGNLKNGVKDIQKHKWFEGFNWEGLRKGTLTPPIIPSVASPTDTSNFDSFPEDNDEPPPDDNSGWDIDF

[16] = target: T15, MST1(h) (Homo sapiens, UniProt Q13043); assay: Eurofins KinaseProfiler radiometric kinase assay; type: biochemical; settings: read-out: MST1(h) % Residual activity
T15 construct: purchased Eurofins KinaseProfiler (Eurofins Cerep)

[17] = target: T16, CaMKI(h) (Homo sapiens, UniProt Q14012); assay: Eurofins KinaseProfiler radiometric kinase assay; type: biochemical; settings: read-out: CaMKI(h) % Residual activity
T16 construct: purchased Eurofins KinaseProfiler (Eurofins Cerep)
T16 sequence (Q14012 whole entry): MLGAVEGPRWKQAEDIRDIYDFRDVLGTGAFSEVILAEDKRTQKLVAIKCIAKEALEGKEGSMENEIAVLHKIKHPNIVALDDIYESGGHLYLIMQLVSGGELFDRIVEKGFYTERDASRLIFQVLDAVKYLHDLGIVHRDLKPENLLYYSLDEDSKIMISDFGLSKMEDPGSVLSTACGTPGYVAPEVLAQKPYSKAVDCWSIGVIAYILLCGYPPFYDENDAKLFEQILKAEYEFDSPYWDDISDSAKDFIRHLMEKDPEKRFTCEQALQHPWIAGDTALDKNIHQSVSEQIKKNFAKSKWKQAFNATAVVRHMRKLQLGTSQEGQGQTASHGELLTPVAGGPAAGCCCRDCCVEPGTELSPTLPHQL

[18] = test system: immortalized murine microglia N9; assay: Immunomodulation in LPS-treated N9 microglia, Western blot of iNOS and TREM2; settings: 2.5 and 5 μM; 100 ng/mL LPS, 24 h
Description: To gain a conclusive answer on the potential role of these kinase inhibitors in counteracting neuroinflammatory processes, after the verified induced astrocytic polarization, the ability of selected compounds to modulate inflammatory response was analyzed by favoring the immunomodulatory switch from neurotoxic M1 phenotype of microglia to phagocytic and neuroprotective M2 phenotype, evaluating inducible nitric oxide synthase (iNOS) and TREM2 as M1 and M2 markers (Figure ).
The microglial phenotype was evaluated through Western blot analysis of the pro-inflammatory iNOS and anti-inflammatory-TREM2 markers.

[19] = target: T17, PKCθ(h) (Homo sapiens, UniProt Q04759); assay: Eurofins KinaseProfiler radiometric kinase assay; type: biochemical; settings: read-out: PKCθ(h) % Residual activity
T17 construct: purchased Eurofins KinaseProfiler (Eurofins Cerep)

[20] = target: T18, PKCα(h) (Homo sapiens, UniProt P17252); assay: Eurofins KinaseProfiler radiometric kinase assay; type: biochemical; settings: read-out: PKCα(h) % Residual activity
T18 construct: purchased Eurofins KinaseProfiler (Eurofins Cerep)

T1 sequence (O43318 1-303 limits assumed): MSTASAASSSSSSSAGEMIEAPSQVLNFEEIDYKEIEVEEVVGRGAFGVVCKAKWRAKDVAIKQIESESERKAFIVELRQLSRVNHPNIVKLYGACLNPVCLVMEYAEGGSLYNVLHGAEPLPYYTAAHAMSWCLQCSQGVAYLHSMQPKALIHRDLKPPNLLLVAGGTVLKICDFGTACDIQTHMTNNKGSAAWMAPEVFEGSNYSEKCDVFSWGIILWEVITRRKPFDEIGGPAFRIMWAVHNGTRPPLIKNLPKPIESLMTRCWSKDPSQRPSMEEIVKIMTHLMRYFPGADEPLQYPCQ

Structure (SMILES)	remaining activity at 10 µM [1]	remaining activity at 10 µM [2]	remaining activity at 10 µM [3]	remaining activity at 10 µM [4]	remaining activity at 10 µM [5]	remaining activity at 10 µM [6]	remaining activity at 10 µM [7]	remaining activity at 10 µM [8]	remaining activity at 10 µM [9]	remaining activity at 10 µM [10]	remaining activity at 10 µM [11]	remaining activity at 10 µM [12]	remaining activity at 10 µM [13]	IC50 [14]	remaining activity at 10 µM [15]	remaining activity at 10 µM [16]	remaining activity at 10 µM [17]	TREM2 expression (M2 marker) vs LPS [18]	iNOS expression (M1 marker) vs LPS [18]	remaining activity at 10 µM [19]	other results
Br.Cc1sc(NCc2ccccc2)nc1-c1c[nH]c2ncc(Br)cc12 [Compound 41, N-Benzyl-4-(5-bromo-1H-pyrrolo[2,3-b]pyridin-3-yl)-5-methylthiazol-2-amine Hydrobromide]	49%	27%	85%	80%	44%	20%	17%	61%	9%	52%	56%	95%	34%	50 ± 10 nM	80%	16%	89%	no significant variations	notably decreased the M1 marker at both tested concentrations	98%	inhibition at 10 µM [9]: > 90%; remaining activity at 10 µM [20]: 66%
Br.Cc1sc(NCc2ccnc(Cl)c2)nc1-c1c[nH]c2ncccc12 [Compound 43, N-((2-Chloropyridin-4-yl)methyl)-5-methyl-4-(1H-pyrrolo[2,3-b]pyridin-3-yl)thiazol-2-amine Hydrobromide]	30%	16%	96%	94%	3%	55%	27%	35%	14%	31%	84%	93%	98%	44 ± 3 nM	40%	14%	80%	no significant variations	significantly reduced the M1 marker only at the highest concentration	23%	inhibition at 10 µM [5]: > 90%; remaining activity at 10 µM [20]: 28%
